Measurements taken from patent US12465579B2, “Compositions and methods for treating homocystinuria and other conditions” (THE REGENTS OF THE UNIVERSITY OF COLORADO, A BODY CORPORATE, priority 2019, dated 2025).

How the values were obtained:
DMGDH = assay: Western blot analysis of hepatic DMGDH protein levels in HO HCU mice; format: in vivo, mouse
Procedure: In other exemplary experiments, it is noted that methotrexate (MTX) treatment represses hepatic DMGDH protein levels even further in experimental HO HCU mice which supports the hypothesis that expression of this enzyme is sensitive to THF levels. In accordance with these methods, Western blot analysis of hepatic DMGDH protein levels in HO HCU mice in the presence and absence of methotrexate levels were assessed.
As illustrated herein, FIGS. 10A-10B represents a Western blot comparing the level of DMGDH and GAPDH (control) for untreated (HO) and treated (HO+MTX, methotrexate) mice (HO) using the HCU mouse model (10A); and further illustrated in a histogram plot (10B), level of intensity of DMDGH for untreated (HO) and treated (HO+MTX, methotrexate) mice (HO) using the HCU mouse model. This figure represents an N=9 per group and this figure is a representative of three independent experiments. P<0.05.
In another exemplary method, experiments were performed to measure levels of a critical enzyme in treated and untreated mouse models (HO).
As found in FIGS. 15A-15B, a Western blot comparing the level of DMGDH and GAPDH (control) for untreated (HO), treated (e.g. formate agent) and treated with standard treatment combinations (e.g. formate and trimethylglycine (e.g. betaine)) using the HCU mouse model (15A); and further illustrating in a histogram plot (15B), level of intensity of DMDGH for untreated (HO), treated (e.g. formate agent) and treated with standard treatment combinations (e.g. formate and trimethylglycine (e.g. betaine)) using the HCU mouse model in certain embodiments disclosed herein. Western blotting analysis of hepatic DMGDH protein levels in HO HCU mice in the presence and absence of either about 5.0% sodium formate alone or in combination with about 3.0% betaine given ad libitum in drinking water for about one week. N=9 per group. This figure is representative of three independent experiments.

Cbs null mouse [1] = assay: Hcy lowering, survival and liver injury in Cbs null mouse model; format: in vivo; conditions: Cbs null mice with severe liver damage
From the text: In one exemplary method, an acceptable mouse mode of HCU is used to study various effects of exemplary compositions disclosed herein on aberrant Hcy levels. To date, the majority of research on HCU has been performed using a CBS knockout mouse model. These Cbs (−/−) animals suffer from pronounced liver injury and typically die within 2-3 weeks of birth.
In an alternative experiment, agents were used to verify involvement of BHMT in the homocystinuria treatment process. In these exemplary methods, a Cbs null mouse was used where severe liver damage to the mouse model interferes with standard HCU treatments to reduce Hcy.

A394V mice = assay: Plasma Hcy in NKH knock-in mouse model (GLDC mutation A394V) challenged with glycine
Procedure: In another exemplary experiment, NKH as represented in the experimental mouse model, A394V mice was tested for levels of Hcy in the NKH mouse model when exposed to various agents.
In this experiment, a knock-in mouse model with the clinically observed human GLDC mutation A394V engineered into the mouse gene was used. This mutation retains a small amount of residual enzyme that is sufficient to create a viable model.
Data shown has an N=5 animals per group and is representative of 2 independent experiments.

HO HCU mice [2] = assay: Plasma Hcy, cysteine and metabolite levels in HO HCU mice treated via drinking water; format: in vivo, mouse; conditions: for further lowering of Hcy due to betaine in the presence of the amino acid: about 3.0% w/v amino acid combined with about 3.0% w/v betaine in drinking water, one week; for plasma Hcy / plasma cysteine levels: HO mice, about 3.0% (w/v) in drinking water ad libitum for one week, normal methionine diet
Procedure: It is noted that WT mice (n=6) were untreated controls. HO HCU mice (N=8, 4 of each sex in each group) were either untreated or treated with about 3.0% (w/v) glycine w/v or about 3.0% (w/v) serine given in drinking water supplied ad libitum for one week.
In accordance with these methods, HO HCU mice (N=8, 4 of each sex in each group) were treated with either about 3.0% glycine w/v or about 3.0% w/v serine given in drinking water supplied ad libitum for one week in the presence and absence of about 3.0% w/v betaine. Plasma samples were taken from the mice at various times and Hcy levels were determined.
Plasma Hcy levels were determined from HO HCU mice (n=8 per group) in the presence and absence of either about 5.0% w/v sodium formate alone or in combination with about 3.0% betaine given in drinking water given ad libitum. […]

DHFR = assay: Western blotting analysis of hepatic DHFR protein levels in HO HCU mice; format: in vivo, mouse; conditions: betaine treated, not restored to control levels
Procedure: In other exemplary experiments, levels of DHFR were assessed using the HO mouse model in untreated and betaine treated mice. […] In addition, intensity levels of DHFR were measured and further illustrated in a histogram plot. As illustrated, level of intensity of DHFR for wild type (WT), treated (HO+betaine) and untreated mice (HO) using the HCU mouse model was examined. It is noted that the level of DHFR in betaine treated mice was not restored to control levels and only about a 5-10% improvement was observed (4B). (See FIGS. 4A-4B). As noted herein, Western blotting analysis of hepatic DHFR protein levels in WT and HO HCU mice. N=9 per group.

BHMT = BHMT protein level in liver during long-term betaine treatment; format: in vivo
From the text: By this observation, it raised the possibility that the BHMT protein is impaired in its function. […] In this context, further induction of BHMT expression observed in a long-term betaine treatment group could constitute a not entirely successful compensatory mechanism designed to mitigate the effects of diminished BHMT activity.
In other embodiments disclosed herein, it was observed that BHMT is unusual in that it constitutes approximately 2% of total protein in the liver. During long-term betaine treatment this concentration rises to up to four to five fold (about 8-10%) of total hepatic protein which is an enormous amount of protein that would require zinc for its function. The increased requirement for zinc cannot be supplied because zinc cannot be stored in mammals and must be supplemented by diet or other source. Unfortunately, dietary sources of zinc are typically very high in protein and therefore precluded by the low methionine diet required of HCU patients. Therefore, long term betaine treatment in HCU could induce a significant zinc deficiency in a subject, impairing BHMT protein function and concomitantly reducing the betaine response.
BHMT is unusual in that it constitutes approximately 2% of total protein in the liver. […]

[3] = tested on: mouse model of MTR deficient homocystinuria; assay: Betaine supplementation in mouse model of MTR deficient homocystinuria; format: in vivo
From the text: In the following exemplary experiments, it was observed that betaine supplementation was limited as observed in a mouse model of MTR deficient homocystinuria. As noted in FIG. 1, Homocystinuria can occur due to defects in the Hcy remethylation enzymes MTR or MTHFR. It was observed that supplementation of betaine in certain experiments with a mouse model of MTR deficient homocystinuria lead to reduction of tHcy of approximately 25% having little effect on the condition. This modest decrease in betaine mediated treatment of MTR deficient homocystinuria has also been observed in human patients with this form of homocystinuria.

hepatic 5-methyl-THF = assay: Hepatic metabolomic analysis of 5-MeTHF in HO mice; format: in vivo, mouse; conditions: betaine 3% w/v in drinking water ad libitum
From the text: As illustrated in one example, see FIG. 2, HCU (HO) induces a significant accumulation of hepatic 5-methyl-THF which by sequestering one carbon units has the potential to decrease the available pool of THF available to the betaine pathway for lowering Hcy. FIG. 2 illustrates an example of hepatic metabolomic analysis of HO and WT controls compared to an HO mouse treated with betaine. Comparative hepatic metabolomic analysis of HO mice and WT controls illustrate about a 10-fold accumulation in the MTHFR product 5-MeTHF. Betaine treatment alone reduced 5-MeTHF by about 15-25%. Data illustrated in FIG. 2 is derived from the livers of 8 (4 male, 4 female) individual HO or WT or HO Betaine mice per group. Betaine was given at 3% w/v in drinking water given ad libitum. P<0.0001 vs WT.

HO HCU mice [4] = assay: Long-term betaine treatment of HO HCU mice without methionine-restriction; format: in vivo, mouse
Cbs null mouse [5] = conditions: betaine treatment; cited from earlier work
[6] = betaine treatment of the HO model

CN(Cc1cnc2nc(N)nc(N)c2n1)c1ccc(C(=O)N[C@@H](CCC(=O)O)C(=O)O)cc1 [methotrexate]
hepatic DMGDH protein levels (DMGDH; methotrexate treatment): represses

NCC(=O)O [glycine]
lowering of Hcy in the Cbs null mouse model (Cbs null mouse [1]): unable to lower Hcy
plasma Hcy on glycine challenge (A394V mice; mouse, in vivo): massive increase
further lowering of Hcy due to betaine in the presence of the amino acid (HO HCU mice [2]; HO HCU mice): reduced and/or completely prevented
plasma Hcy (HO HCU mice [2]): significantly lowered
plasma cysteine levels (HO HCU mice [2]): increased

C[N+](C)(C)CC(=O)O [betaine, N,N,N-trimethylglycine]
improvement of hepatic DHFR level (DHFR): 5-10%
levels of BHMT protein (BHMT): significantly higher levels
BHMT as share of total hepatic protein (BHMT; approximately 2% normally): 8-10%
reduction of tHcy [3]: approximately 25%
reduction of hepatic 5-MeTHF (hepatic 5-methyl-THF): 15-25%
ability of betaine treatment to lower homocysteine (HO HCU mice [4]; long-term betaine treatment, no methionine-restriction): diminished significantly over time
coagulation phenotype (HO HCU mice [4]; prolonged betaine treatment): reversion to a hypercoagulative phenotype
plasma levels of TNF-α and IL-Ip (HO HCU mice [4]; prolonged betaine treatment): significant increase
fertility of female Cbs (-/-) mice (Cbs null mouse [5]): restored fertility
lowering of Hcy in Cbs (-/-) mice (Cbs null mouse [5]): without significantly lowering Hcy
severe liver injury, steatosis, and fibrosis in surviving Cbs (-/-) mice (Cbs null mouse [5]): not significantly improved
survival of Cbs (-/-) mice (Cbs null mouse [5]): improved survival
reduction of Hcy levels by standard treatment alone (HO HCU mice [2]; HO mouse model, betaine alone, as previously observed): 15-25%
AdoHcy levels (HO HCU mice [2]; [6]): fivefold decrease
decrease in plasma AdoMet (HO HCU mice [2]; [6]): 40%
plasma DMG (HO HCU mice [2]; [6]): increase
plasma MG (HO HCU mice [2]; [6]): increase
plasma cysteine (HO HCU mice [2]; [6]): increase
plasma methionine (HO HCU mice [2]; [6]): increase

O=C[O-].[Na+] [sodium formate]
hepatic DMGDH expression levels (DMGDH; about 5.0% sodium formate alone in drinking water, about one week): restore normal expression levels
response level for restoring DMGDH, formate agent combined with betaine (DMGDH; about 5.0% sodium formate with about 3.0% betaine in drinking water, about one week): surprisingly synergistic
lowering of Hcy in the Cbs null mouse model (Cbs null mouse [1]): unable to lower Hcy
glycine induced increase in Hcy (A394V mice; A394V NKH mice, concomitant formate about 5.0% w/v in drinking water with about 5.0% w/v glycine): significantly reduced
plasma Hcy levels (HO HCU mice [2]; HO HCU mice, about 5.0% w/v sodium formate alone in drinking water, normal methionine/protein diet): significantly lowered
Hcy levels, formate combined with the standard treatment (betaine) (HO HCU mice [2]; HO HCU mice, about 5.0% w/v sodium formate with about 3.0% betaine in drinking water, normal protein diet): near normal levels

O=S(=O)([O-])[O-].[Zn+2] [Zinc sulfate]
average decrease in plasma homocysteine (HO HCU mice [2]; 8 HO HCU mice, 0.05% w/v Zinc sulfate in drinking water ad libitum for one week): 25%
decrease in betaine efficacy during long term betaine treatment, zinc combined with betaine (HO HCU mice [2]; HO HCU mice, zinc supplementation with betaine, data not shown): prevented

N[C@@H](Cc1c[nH]cn1)C(=O)O [histidine]
further lowering of Hcy due to betaine in the presence of the amino acid (HO HCU mice [2]; HO HCU mice): also observed

N[C@@H](Cc1c[nH]c2ccccc12)C(=O)O [tryptophan]
further lowering of Hcy due to betaine in the presence of the amino acid (HO HCU mice [2]; HO HCU mice): also observed

N[C@@H](CO)C(=O)O [serine]
lowering of Hcy in the Cbs null mouse model (Cbs null mouse [1]): unable to lower Hcy
further lowering of Hcy due to betaine in the presence of the amino acid (HO HCU mice [2]; HO HCU mice): reduced and/or completely prevented
plasma Hcy (HO HCU mice [2]): significantly lowered
plasma cysteine levels (HO HCU mice [2]): increased

CNCC(=O)O [sarcosine, sarcosine (methylglycine)]
further lowering of Hcy due to betaine in the presence of the amino acid (HO HCU mice [2]; HO HCU mice): also observed
